Laboratory results published in US7569695B2, “Dyes for the detection or quantification of desirable target molecules” (Enzo Life Sciences, Inc., priority 2005, dated 2009).

Legend:
anti-sense C amplicon = assay: Amplification of various amounts of target with fixed dye levels, 29 cycles (Example 37); assay type: biochemical; conditions: 1:1000 dilution of SYBR Green
Procedure: In the previous experiments, a fixed amount of target was amplified in the presence of varying level of dyes. The eventual use of these dyes is going to be with a fixed amount of dye and varying levels of targets. As such, an experiment was carried out using previously determined optimal levels of dyes and various amounts of input target (again using the anti-sense C as a model). • Dilution 1=1:100,000 • Dilution 2=1:1,000,000 • Dilution 3=1:10,000,000 • Dilution 4=1:100,000,000 • Dilution 5=1:1,000,000,000 • Dilution 6=1:10,000,000,000
Selected amounts of target template were amplified on the Light Cycler (Roche) in the presence of various amounts of Dye 122, Dye 109a and SYBR Green.
A master mixture was made up of: • 380 l of 2×PCR mix described in Example 33 • 15.2 l of 25 mM MgCl2 • 190.0 l of DEPC treated H2O • 7.6 l of 10 mg/ml BSA (New England Biolabs, Beverly, Mass.) • 7.6 l Taq polymease (Perkin Elmer)+7.6 l of TaqStart (Clontech)
2.0 l of target template (1:50,000 dilution of the antisense C amplicon)+2.0 l of various dye concentrations were added to 16 µl of Master mixture and amplified as described previously in Example 33 stopping after 29 cycles. Dye additions were from the 1:1000 dilution of SYBR Green, 1:30 of Dye 109a and 1:30 of Dye 122.
At the highest input level (Dil 2 1:1,000,000 dilution of amplicon) no evidence of amplification is seen in the sample without dye.

[1] = test system: 78 bp amplicon of the anti-sense C construct; assay: Amplification on the Light Cycler in the presence of Dye 122 and 109a, 19 cycles (Example 35); assay type: biochemical
From the text: A target template was amplified on the Light Cycler (Roche) in the presence of various amounts of SYBR Green and Dye 122 from Example 32. In addition, a byproduct from the silica gel chromatography of Dye 109 in step (g) of Example 14 was also used. This compound is believed to have a single protonation of one of the amines of Dye 109 and as such will be termed Dye 109a. The stock of Dye 122 was OD=200 measured at 488 nm and the stock of Dye 109a was OD=200 measured at 498 nm. The template was a 1:50,000 dilution of the 78 bp amplicon of the anti-sense C construct described previously. • A master-mixture was made up of: • 350 µl of 2×PCR mix described in Example 33 • 14 l of 25 mM MgCl2 • 175.0 l of DEPC treated H2O • 7 l of 10 mg/ml BSA (New England Biolabs, Beverly, Mass.) • 7 l Taq polymease (Perkin Elmer)+7 l of TaqStart (Clontech)
2.0 l of target template+2.0 l of various dye dilutions were added to 16 µl of Master mixture, and then amplified as described previously in Example 33 except that the incubation at 45° C. for 10 minutes was eliminated since ung was not used for this series of amplifications. The amplification was stopped after 19 cycles. The results of this series of amplifications are seen in FIG. 3. […] For Dye 109a, similar features were seen where 1:10 was inhibitory (lane 18) and 1:30 was optimal (lanes 19 and 20).

**Q.** Which “amplification product (gel analysis, FIG. 5)” value (anti-sense C amplicon; Dil 2 (1:1,000,000) target input) does the source give for `CCCN(CCCN(C)C)c1cc(/C=C2/Sc3ccccc3N2C)c2ccccc2[n+]1-c1ccccc1` [SYBR Green, reference compound] here?
**A.** faint but visible band

**Q.** And the “amplification product (gel analysis, FIG. 5)” value (anti-sense C amplicon; further dilutions of target)?
**A.** do not show any evidence of an amplification product

**Q.** What about the “amplification (gel analysis, FIG. 3)” value ([1]; 1:800 dilution of SYBR Green, lanes 4 and 5) of the same compound?
**A.** best amplification

**Q.** What about the “amplification (gel analysis, FIG. 3)” value ([1]; SYBR Green dilutions on either side of 1:800) of the same compound?
**A.** sharp drop off
